Test results published in US20250270159A1, “1-(CYCLOBUTANEMETHYLIDENE)-2, 4, 5-TRIMETHOXYBENZENE COMPOUND AND PREPARATION METHOD AND USE THEREOF” (CHENGDU XINRUI TAIKANG TECHNOLOGY CO., LTD., priority 2023, published 2025).

Tests used:
[1] = tested on: rat model of lithium-pilocarpine-induced epilepsy; assay: Rat model of lithium-pilocarpine-induced epilepsy (SE), highest seizure grade score; assay type: in vivo, Sprague Dawley (SD) rats; details: 300 mg/kg oral gavage, 1 h after SE onset; acute phase; Racine 0-6
Method: (1) Experimental Animals: SPF Adult Male Sprague Dawley (SD) Rats, with a Weight of 200-250 g.
Methylscopolamine bromide, lithium chloride, and pilocarpine were weighed, and experimental drugs were dissolved to working concentrations (100 mg/mL of lithium chloride solution, 1 mg/mLof methylscopolamine bromide solution, and 20 mg/mL of pilocarpine solution) with 0.9% saline. Rats were injected intraperitoneally with lithium chloride (a dose of 127 mg/kg), and 18-20 h later, scopolamine methylbromide (a dose of 1 mg/kg) was injected intraperitoneally. […] Thereafter, an additional dose of 10 mg/kg pilocarpine was injected intraperitoneally every 30 min until the onset of a grade IV or higher status epilepticus (SE)-like seizure without significant intermittent intervals, with a maximum dose of 60 mg/kg.
Model inclusion criterion: experimental animals presenting continuous seizures of grade IV or higher for 1 h was judged as successful modeling.
The rats with successful modeling were randomly divided into three groups, namely a model group, a CTMB group, and a sodium valproate (VPA) group. […]
Referring to the grading scale of Racine scores, the seizure symptoms of each group of rats after the drug intervention were observed, and the seizure grades of each group of rats in the acute phase were recorded. […]

[2] = tested on: Parkinson's disease (PD) mice, 6-OHDA method; assay: 6-OHDA Parkinson's disease mice, hanging experiment; assay type: in vivo, C57 mice; details: Group L, levodopa: benserazide hydrochloride=4:1, 12 mg/kg ip, cut-off 60 s
Method: (§1) The mice were randomly divided into a sham operation group (group S, given a blank emulsion with a volume equal to that of the administered group), a model group (group M, given a blank emulsion with a volume equal to that of the administered group), a CTMB group (20 mg/kg, group D), and a levodopa group (levodopa: benserazide hydrochloride=4:1, 12 mg/kg, group L), each group included 10-12 mice, and all of them were administered intraperitoneally.
(§2) Preoperatively, mice were fasted for 12 h, and mice were anesthetized with 4% isoflurane induction and maintained with 1.5% isoflurane. The mice were subsequently immobilized on a brain stereotaxic apparatus. The bregma and lambda points were exposed by gently wiping the cranial surface with a cotton swab after cutting the scalp. The stereotaxic apparatus was adjusted to align the heights of the bregma and lambda points, thereby leveling the skull. The bregma point was designated as the origin, the coordinates where the injection site was located were located, and the drill was used to drill a small hole in the skull above the injection site.
(§3) 6-OHDA (12.5 μg/μL) was injected into the striatum region (AP+0.5 mm; ML+2.00 mm; DV-3.00 mm and-2.00 mm) of the mice, and 1 μL 6-OHDA was injected into each of the two points at a rate of 0.5 μL/min. The needle was left in place for 3 min after the injection was completed, and then the injection needle was lifted, and the scalp of the mice was sutured and disinfected. The sham operation group was injected with an equal volume of saline containing 0.02% ascorbic acid, and other operations were performed as above. After the procedure, the mice were placed in the cage at an appropriate temperature. After awakening from anesthesia, the mice were kept normally.
The hanging experiment: normal mice have climbing activity, which requires proper grip strength and motor coordination, so the hanging experiment may be used to examine motor dysfunction in mice. A metal rod with a diameter of 1.5 mm was placed horizontally on top of the box, and a distance from the metal rod to the bottom of the box was 30 cm. […] Measurement was performed twice, with an interval of 1 min or more between each test, and the results were averaged over the two times.
(§4) The motor function of the mice was comprehensively assessed using the rod-climbing experiment and the hanging experiment at 1, 2, 3, and 4 weeks after drug administration.

[3] = tested on: neurons of substantia nigra region and striatum of PD mice; assay: HE staining of substantia nigra and striatum of PD mice; assay type: in vivo, C57 mice; details: Group L, levodopa: benserazide hydrochloride=4:1, 12 mg/kg ip, 4 weeks; compared with model group; FIG. 5-7
Method: as §1
(§5) After completing the evaluation of motor function after 4 weeks of drug administration, the mice were deeply anesthetized, perfused with 20 mL of saline and 20 mL of 4% paraformaldehyde via the heart, and the brains were rapidly severed and extracted from the head, which were then preserved and fixed in 4% paraformaldehyde for 72 h after removal, and then embedded with paraffin to prepare the slices with a thickness of 4 μm for subsequent pathological and histological studies.
Hematoxylin-eosin (HE) staining may be used to observe changes in the pathological condition of brain tissue. […]

[4] = tested on: Tyrosine hydroxylase (TH) protein expression; assay: TH protein expression by immunohistochemistry in substantia nigra of PD mice; assay type: in vivo, C57 mice; details: Group L, levodopa: benserazide hydrochloride=4:1, 12 mg/kg ip, after 4 weeks of administration
Method: as §1, §5
Tyrosine hydroxylase (TH) protein expression was detected by immunohistochemistry. […]

[5] = tested on: neurons in the substantia nigra region of the midbrain of PD mice; assay: Niehl's staining, number of neuronal Niehl's bodies in substantia nigra of PD mice; assay type: in vivo, C57 mice; details: Group L, levodopa: benserazide hydrochloride=4:1, 12 mg/kg ip, after 4 weeks of administration
Method: as §1, §5
Niehl's staining was used to identify Niehl's bodies in neuronal cells.

[6] = tested on: Parkinson's disease (PD) mice, 6-OHDA method; assay: 6-OHDA Parkinson's disease mice, rod-climbing experiment; assay type: in vivo, C57 mice; details: Group L, levodopa: benserazide hydrochloride=4:1, 12 mg/kg ip
Method: as §1, §2, §3
The rod-climbing experiment: the rod-climbing experiment was mainly used to test the limb movement ability of mice and to assess the symptoms of motor delay. This experiment evaluated the ability of mice to grasp and maneuver on a pole to descend to their home cage. A cork ball was fixed to an iron pole with a diameter of 1 cm and a length of 65 cm. The head of the mice was put down on the top of the pole, and the mice usually naturally descended down along the pole to return to their cage. The time for the mice to descend to the bottom was recorded. Results were averaged over 3 consecutive measurements.
as §4

Compound | Seizure grade score (highest, SE model rats) [1] | Hanging time, Before administration ([2]; baseline 2 weeks after 6-OHDA) [s] | Hanging time, 1 week of administration [2] [s] | Hanging time, 2 weeks of administration [2] [s] | Hanging time, 3 weeks of administration [2] [s] | Hanging time, 4 weeks of administration [2] [s] | degree of pathological damage to the substantia nigra region and striatum [3] | TH-positive neurons (a percentage of TH-positive neurons to uninjured side, %) [4] [%] | Number of Niehl's bodies [5] | Rod-climbing time, 1 week of administration [6] | Rod-climbing time, 2 weeks of administration [6] [s] | Rod-climbing time, 3 weeks of administration [6] [s] | Rod-climbing time, 4 weeks of administration [6] [s] | Rod-climbing time, Before administration ([6]; baseline 2 weeks after 6-OHDA) [s]
CCCC(CCC)C(=O)[O-].[Na+] [VPA, sodium valproate, reference compound] | 5.00 ± 0.00 |  |  |  |  |  |  |  |  |  |  |  |  | 
N[C@@H](Cc1ccc(O)c(O)c1)C(=O)O [levodopa, Levodopa, reference compound] |  | 43.7 ± 19.5 | 54.4 ± 8.0 | 47.0 ± 16.2 | 48.2 ± 18.1 | 50.3 ± 12.9 | reduced | 18.8 ± 7.6 | 57.8 ± 6.5 | 6.39 ± 1.18 ^ s | 5.79 ± 0.49 | 5.34 ± 0.84 | 4.93 ± 0.59 | 9.63 ± 2.53
